# Where two headings read alike, the source gives them in different places.
# Assays:
# [1] = molecular target: T1, HCV NS5B (Hepatitis C virus genotype 1b, UniProt Q9WMX2); test: Inhibition of viral RNA-dependent RNA polymerase (RdRp), in vitro biochemical assay; parameters: species or system HCV genotype 1b virus (BB7); conditions: read-out: HCV pol-BB7 IC50
# T1 construct: fusion protein, of which the carboxyl terminal 21 amino acids were removed to enhance its solubility; His tag (GSHHHHHH); made in house; host or cells: E. coli
# Summary of the method: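 IC50 values are the concentrations that halve in vitro RNA synthesis by HCV NS5B polymerase. The enzyme was a C-terminally truncated (Δ21), His-tagged genotype 1b (BB7 consensus) protein purified from E. coli.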
# [2] = tested on: HCV replicon (BB7 sequence) in Huh-7-Clone A cells; test: HCV replicon assay: ELISA of NS5A protein in replicon-containing cells (Inhibition of Viral RNA Replication); assay type: cell-based; conditions: Hepatitis C virus, read-out: Replicon
# Summary of the method: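 EC50 taken from an 8-point serially diluted dose curve, with NS5A level as read-out: fixed cells probed with primary monoclonal and HRP-conjugated secondary, TMB developed 30 min, OD 650 nm. Compound exposure 72 h in Huh-7-Clone A replicon cells (BB7 sequence).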
# [3] = HCV NS5B polymerase, BB7 (genotype 1b), values given as range classes A-D
# [4] = HCV replicon assay, ranges of 50% effective concentration (EC50)
# [5] = ranges of EC50 in HCV replicon assay
# [6] = HCV NS5B RdRp, BB7, class symbols A-D
# [7] = HCV replicon assay, ranges of EC50
# [8] = purified His-tagged NS5B (BB7), carboxyl terminal 21 amino acids removed
# [9] = Huh-7-Clone A, NS5A ELISA, 72-hour incubation, ranges of EC50
# [10] = HCV NS5B RdRp, BB7, reported as range class
# [11] = HCV NS5B RdRp, BB7, activity class
smiles,measurement,setting,value
"CNC(=O)c1c(-c2ccc(F)cc2)oc2cc(C3(C)NC(=O)NC3=O)c(OC)cc12 (centres unmarked) [Example 389, 2-(4-Fluoro-phenyl)-5-methoxy-6-(4-methyl-2,5-dioxo-imidazolidin-4-yl)-benzofuran-3-carboxylic acid methylamide]",IC50,[1]; [3],≤ 500 nM
same,EC50,[2]; [4],< 10000 nM
"CNC(=O)c1c(-c2ccc(F)cc2)oc2cc(C)c(OC(C)C(=O)O)cc12 (centres unmarked) [Example 97, 2-[2-(4-Fluoro-phenyl)-6-methyl-3-methylcarbamoyl-benzofuran-5-yloxy]-propionic acid]",IC50,"[1]; HCV NS5B RdRp, BB7 genotype 1b",5000 to 30000 nM
same,EC50,[2]; [5],> 30000 nM
"CNC(=O)c1c(-c2ccc(F)cc2)oc2cc(N3CCOCC3)c(OCc3ccc(C(=O)O)cc3)cc12 [Example 267, 4-[2-(4-Fluoro-phenyl)-3-methylcarbamoyl-6-morpholin-4-yl-benzofuran-5-yloxymethyl]-benzoic acid]",IC50,[1]; [6],≤ 500 nM
same,EC50,[2]; [7],< 10000 nM
"CNC(=O)c1c(-c2ccc(F)cc2)oc2cc(N(CC(C)=O)S(C)(=O)=O)c(OC(C)C)cc12 [Example 34, 2-(4-Fluoro-phenyl)-5-isopropoxy-6-[methanesulfonyl-(2-oxo-propyl)-amino]-benzofuran-3-carboxylic acid methylamide]",IC50,[1]; [8],≤ 500 nM
same,EC50,[2]; [9],< 1000 nM
"CNC(=O)c1c(-c2ccc(F)cc2)oc2cc(N3CCCCC3)c(OC(C)C)cc12 [Example 101, 2-(4-Fluoro-phenyl)-5-isopropoxy-6-piperidin-1-yl-benzofuran-3-carboxylic acid methylamide]",IC50,"[1]; HCV NS5B RdRp, BB7 genotype 1b",≤ 500 nM
same,EC50,[2]; [5],< 1000 nM
"CNC(=O)c1c(-c2ccc(F)cc2)oc2cc(NC(C)C)c(OC(C)C)cc12 [Example 114, 2-(4-Fluoro-phenyl)-5-isopropoxy-6-isopropylamino-benzofuran-3-carboxylic acid methylamide]",IC50,"[1]; HCV NS5B RdRp, BB7 genotype 1b",≤ 500 nM
same,EC50,[2]; [5],< 1000 nM
"CNC(=O)c1c(-c2ccc(F)cc2)oc2cc(O)c(OC)cc12 [Example 208, 2-(4-Fluoro-phenyl)-6-hydroxy-5-methoxy-benzofuran-3-carboxylic acid methylamide]",IC50,[1]; [10],500 to 5000 nM
same,EC50,"[2]; HCV replicon, range of EC50",< 30000 nM
"CNC(=O)c1c(-c2ccc(F)cc2)oc2cc(N(C)S(C)(=O)=O)c(OCc3ccncc3)cc12 [Example 328, 2-(4-Fluoro-phenyl)-6-(methanesulfonyl-methyl-amino)-5-(pyridin-4-ylmethoxy)-benzofuran-3-carboxylic acid methylamide]",IC50,[1]; [6],≤ 500 nM
same,EC50,[2]; [7],< 1000 nM
"CNC(=O)c1c(-c2ccc(O)cc2)oc2ccc(OC(C)C)cc12 [Example 5, 2-(4-Hydroxy-phenyl)-5-isopropoxy-benzofuran-3-carboxylic acid methylamide]",IC50,[1]; [8],500 to 5000 nM
same,EC50,[2]; [9],< 10000 nM
"CNC(=O)c1c(-c2ccccc2)oc2ccc(C#N)cc12 [Example 26, 5-Cyano-2-phenyl-benzofuran-3-carboxylic acid methylamide]",IC50,[1]; [8],5000 to 30000 nM
same,EC50,[2]; [9],< 30000 nM
"CCNc1cc2oc(-c3ccc(F)cc3)c(C(=O)NC)c2cc1OCCCBr [Example 365, 5-(3-Bromo-propoxy)-6-ethylamino-2-(4-fluoro-phenyl)-benzofuran-3-carboxylic acid methylamide]",IC50,[1]; [11],≤ 500 nM
same,EC50,[2]; [7],< 1000 nM
"CNC(=O)c1c(-c2ccc(F)cc2)oc2cc(N3CCCC3)c(OC)cc12 [Example 116, 2-(4-Fluoro-phenyl)-5-methoxy-6-pyrrolidin-1-yl-benzofuran-3-carboxylic acid methylamide]",IC50,"[1]; HCV NS5B RdRp, BB7 genotype 1b",≤ 500 nM
same,EC50,[2]; [5],< 1000 nM
"COc1cc2c(C(=O)NC(C)C)c(-c3ccc(F)cc3)oc2cc1-c1c(C)noc1C [Example 379, 6-(3,5-Dimethyl-isoxazol-4-yl)-2-(4-fluoro-phenyl)-5-methoxy-benzofuran-3-carboxylic acid isopropylamide]",IC50,[1]; [11],500 to 5000 nM
same,EC50,[2]; [7],> 30000 nM
"C=CCOc1cc2c(C(=O)NC)c(-c3ccc(F)cc3)oc2cc1NCC [Example 366, 5-Allyloxy-6-ethylamino-2-(4-fluoro-phenyl)-benzofuran-3-carboxylic acid methylamide]",IC50,[1]; [11],≤ 500 nM
same,EC50,[2]; [7],< 1000 nM
"CNC(=O)c1c(-c2ccccc2)oc2ccc(OCc3ccccc3-c3ccccc3)cc12 [Example 53, 5-(Biphenyl-2-ylmethoxy)-2-phenyl-benzofuran-3-carboxylic acid methylamide]",IC50,[1]; [8],5000 to 30000 nM
same,EC50,[2]; [9],< 30000 nM
"CC(C)Oc1cc2c(C(=O)NC3CC3)c(-c3ccc(F)cc3)oc2cc1NS(C)(=O)=O [Example 199, 2-(4-Fluoro-phenyl)-5-isopropoxy-6-methanesulfonylamino-benzofuran-3-carboxylic acid cyclopropylamide]",IC50,[1]; [10],≤ 500 nM
same,EC50,"[2]; HCV replicon, range of EC50",< 1000 nM
"CNC(=O)c1c(-c2ccc(F)cc2)oc2cc(N(C)S(C)(=O)=O)c(Oc3nc(CCl)ns3)cc12 [Example 321, 5-(3-Chloromethyl-[1,2,4]thiadiazol-5-yloxy)-2-(4-fluoro-phenyl)-6-(methanesulfonyl-methyl-amino)-benzofuran-3-carboxylic acid methylamide]",IC50,[1]; [6],≤ 500 nM
same,EC50,[2]; [7],< 1000 nM
"CNC(=O)c1c(-c2ccc(F)cc2)oc2cc(N(C)C)c(OC(C)C)cc12 [Example 20, 6-Dimethylamino-2-(4-fluoro-phenyl)-5-isopropoxy-benzofuran-3-carboxylic acid methylamide]",IC50,[1]; [8],≤ 500 nM
same,EC50,[2]; [9],< 1000 nM
"CNC(=O)c1c(-c2ccc(F)cc2)oc2cc(-c3c(C)noc3C)c(OCc3cc(C)on3)cc12 [Example 409, 6-(3,5-Dimethyl-isoxazol-4-yl)-2-(4-fluoro-phenyl)-5-(5-methyl-isoxazol-3-ylmethoxy)-benzofuran-3-carboxylic acid methylamide]",IC50,[1]; [3],≤ 500 nM
same,EC50,[2]; [4],< 1000 nM
"CNC(=O)c1c(-c2ccc(F)c(O)c2)oc2ccc(OC(C)C)cc12 [Example 105, 2-(4-Fluoro-3-hydroxy-phenyl)-5-isopropoxy-benzofuran-3-carboxylic acid methylamide]",IC50,"[1]; HCV NS5B RdRp, BB7 genotype 1b",5000 to 30000 nM
same,EC50,[2]; [5],< 30000 nM
"CCNc1cc2oc(-c3ccc(F)cc3)c(C(=O)NC)c2c(Cl)c1OC [Example 363, 4-Chloro-6-ethylamino-2-(4-fluoro-phenyl)-5-methoxy-benzofuran-3-carboxylic acid mehtylamide]",IC50,[1]; [11],≤ 500 nM
same,EC50,[2]; [7],< 1000 nM
"CNC(=O)c1c(-c2ccc(F)cc2)oc2cc(N3CCOCC3)c(OC)cc12 [Example 103, 2-(4-Fluoro-phenyl)-5-methoxy-6-morpholin-4-yl-benzofuran-3-carboxylic acid methylamide]",IC50,"[1]; HCV NS5B RdRp, BB7 genotype 1b",≤ 500 nM
same,EC50,[2]; [5],< 1000 nM
"CNC(=O)c1c(-c2ccc(CNC(C)=O)cc2)oc2ccc(OC(C)C)cc12 [Example 4, 2-[4-(Acetylamino-methyl)-phenyl]-5-isopropoxy-benzofuran-3-carboxylic acid methylamide]",IC50,[1]; [8],500 to 5000 nM
same,EC50,[2]; [9],< 30000 nM
"CNC(=O)c1c(-c2ccc(F)cc2)oc2cc(N(C)S(C)(=O)=O)c(OCCn3cccn3)cc12 [Example 404, 2-(4-Fluoro-phenyl)-6-(methanesulfonyl-methyl-amino)-5-(2-pyrazol-1-yl-ethoxy)-benzofuran-3-carboxylic acid methylamide]",IC50,[1]; [3],≤ 500 nM
same,EC50,[2]; [4],< 1000 nM
"CNC(=O)c1c(-c2ccco2)oc2ccc(OC)cc12 [Example 68, 2-Furan-2-yl-5-methoxy-benzofuran-3-carboxylic acid methylamide]",IC50,[1]; [8],500 to 5000 nM
same,EC50,[2]; [9],< 30000 nM
"CNC(=O)c1c(-c2ccccc2)oc2ccc(C(C)C)cc12 [Example 86, 5-Isopropyl-2-phenyl-benzofuran-3-carboxylic acid methylamide]",IC50,[1]; [8],≤ 500 nM
same,EC50,[2]; [9],< 10000 nM
"CNC(=O)c1c(-c2ccc(F)cc2)oc2cc(N3CCOCC3)c(OC(F)F)cc12 [Example 172, 5-Difluoromethoxy-2-(4-fluoro-phenyl)-6-morpholin-4-yl-benzofuran-3-carboxylic acid methyalmide]",IC50,[1]; [10],≤ 500 nM
same,EC50,"[2]; HCV replicon, range of EC50",< 1000 nM
"CNC(=O)c1c(-c2ccc(F)cc2)oc2cc(N3CCOCC3)c(OCc3ccc(OC)cc3)cc12 [Example 30, 2-(4-Fluoro-phenyl)-5-(4-methoxy-benzyloxy)-6-morpholin-4-yl-benzofuran-3-carboxylic acid methylamide]",IC50,[1]; [8],≤ 500 nM
same,EC50,[2]; [9],< 1000 nM
"CNC(=O)c1c(-c2ccc(F)cc2)oc2cc(-c3cc(C)on3)c(OC(C)C)cc12 [Example 283, 2-(4-Fluoro-phenyl)-5-isopropoxy-6-(5-methyl-isoxazol-3-yl)-benzofuran-3-carboxylic acid methylamide]",IC50,[1]; [6],≤ 500 nM
same,EC50,[2]; [7],< 1000 nM
"CNC(=O)c1c(-c2ccc(F)cc2)oc2cc(-c3cc(C)n[nH]3)c(OC(C)C)cc12 [Example 247, 2-(4-Fluoro-phenyl)-5-isopropoxy-6-(5-methyl-2H-pyrazol-3-yl)-benzofuran-3-carboxylic acid methylamide]",IC50,[1]; [10],500 to 5000 nM
same,EC50,"[2]; HCV replicon, range of EC50",< 10000 nM
"CNC(=O)c1c(-c2ccccc2)oc2ccc(C(C)(C)C)cc12 [Example 74, 5-tert-Butyl-2-phenyl-benzofuran-3-carboxylic acid methylamide]",IC50,[1]; [8],≤ 500 nM
same,EC50,[2]; [9],< 10000 nM
